Results published in ChEMBL document CHEMBL1201862, “PubChem BioAssay data set” (2004).
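1) Cells in 96-well plates. 2) Compound, 48 h, 5 concentrations. 3) Linear interpolation between surrounding doses. 4) Unreached endpoint = highest concentration. GI50 = concentration required for 50% inhibition of growth.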 Activity calls are given as the source filed them. Cut-off read from the data, not from the text of the source: active = GI50 up to about 1.1 µM and inactive = higher.

Assays:
Assay in all cases: inhibition of tumour cell growth, NCI panel, 48 h
SF-268 = tested on: SF-268
HCC 2998 = tested on: HCC 2998
HOP-62 = tested on: HOP-62
COLO 205 = tested on: COLO 205
SK-OV-3 = tested on: SK-OV-3
OVCAR-4 = tested on: OVCAR-4
SF-539 = tested on: SF-539
HCT-15 = tested on: HCT-15
CCRF-CEM = tested on: CCRF-CEM
HCT-116 = tested on: HCT-116
K562 = tested on: K562
KM12 = tested on: KM12
OVCAR-8 = tested on: OVCAR-8
SW-620 = tested on: SW-620
SK-MEL-2 = tested on: SK-MEL-2
LOX IMVI = tested on: LOX IMVI
MOLT-4 = tested on: MOLT-4
U-251 = tested on: U-251
NCI-H23 = tested on: NCI-H23
HL-60 = tested on: HL-60

C/C=C/C1=CC(=O)C(O)C1O (configuration not stated)
GI50 (SF-268): 26.5 µM (inactive) | GI50 (HCC 2998): 27.5 µM (inactive) | GI50 (HOP-62): 47.6 µM (inactive) | GI50 (COLO 205): 22 µM (inactive) | GI50 (SK-OV-3): 40.7 µM (inactive) | GI50 (OVCAR-4): 37.1 µM (inactive) | GI50 (SF-539): 23.9 µM (inactive) | GI50 (HCT-15): 27.6 µM | GI50 (CCRF-CEM): 22.7 µM (inactive) | GI50 (HCT-116): 26.2 µM (inactive) | GI50 (K562): 30.6 µM (inactive) | GI50 (KM12): 15.3 µM (inactive) | GI50 (OVCAR-8): 24.8 µM (inactive) | GI50 (SW-620): 27.2 µM (inactive) | GI50 (SK-MEL-2): 36.5 µM (inactive) | GI50 (LOX IMVI): 16.5 µM (inactive) | GI50 (MOLT-4): 28 µM (inactive) | GI50 (U-251): 44.8 µM (inactive) | GI50 (NCI-H23): 25.9 µM (inactive) | GI50 (HL-60): 15.1 µM (inactive)

O=C(NC1C=CCC2C(=O)N(c3ccccc3)C(=O)C12)OCc1ccccc1 (configuration not stated)
GI50 (SF-268): > 100 µM (inactive) | GI50 (HCC 2998): > 100 µM (inactive) | GI50 (HOP-62): > 100 µM (inactive) | GI50 (COLO 205): > 100 µM (inactive) | GI50 (SK-OV-3): > 100 µM (inactive) | GI50 (OVCAR-4): > 100 µM (inactive) | GI50 (SF-539): > 100 µM (inactive) | GI50 (CCRF-CEM): > 100 µM (inactive) | GI50 (HCT-116): > 100 µM (inactive) | GI50 (K562): > 100 µM (inactive) | GI50 (KM12): > 100 µM (inactive) | GI50 (OVCAR-8): > 100 µM (inactive) | GI50 (SW-620): > 100 µM (inactive) | GI50 (SK-MEL-2): 57.7 µM (inactive) | GI50 (LOX IMVI): > 100 µM (inactive) | GI50 (MOLT-4): > 100 µM (inactive) | GI50 (U-251): > 100 µM (inactive) | GI50 (NCI-H23): > 100 µM (inactive) | GI50 (HL-60): > 100 µM (inactive)

CC(C)=CC1(C)/C(=N\O)C(C)(CC(C)C)C(=O)N1O (configuration not stated)
GI50 (HCC 2998): > 100 µM (inactive) | GI50 (HOP-62): > 100 µM (inactive) | GI50 (COLO 205): > 100 µM (inactive) | GI50 (SK-OV-3): > 100 µM (inactive) | GI50 (OVCAR-4): > 100 µM (inactive) | GI50 (SF-539): > 100 µM (inactive) | GI50 (HCT-15): > 100 µM | GI50 (CCRF-CEM): > 100 µM (inactive) | GI50 (HCT-116): > 100 µM (inactive) | GI50 (K562): > 100 µM (inactive) | GI50 (KM12): > 100 µM (inactive) | GI50 (OVCAR-8): > 100 µM (inactive) | GI50 (SW-620): > 100 µM (inactive) | GI50 (SK-MEL-2): > 100 µM (inactive) | GI50 (LOX IMVI): > 100 µM (inactive) | GI50 (MOLT-4): > 100 µM (inactive) | GI50 (U-251): > 100 µM (inactive) | GI50 (NCI-H23): > 100 µM (inactive) | GI50 (HL-60): > 100 µM (inactive)

COc1ccc(C(=O)/C=C/c2ccc(OCC(=O)N3CCN(c4ccccc4)CC3)cc2)cc1
GI50 (SF-268): 54 µM (inactive) | GI50 (HCC 2998): > 100 µM (inactive) | GI50 (HOP-62): 39.1 µM (inactive) | GI50 (COLO 205): > 64.6 µM (inactive) | GI50 (SK-OV-3): 29.1 µM (inactive) | GI50 (OVCAR-4): 46.9 µM (inactive) | GI50 (SF-539): 18.9 µM (inactive) | GI50 (HCT-15): 54.7 µM | GI50 (CCRF-CEM): > 35.6 µM (inactive) | GI50 (HCT-116): 64.6 µM (inactive) | GI50 (K562): > 60.5 µM (inactive) | GI50 (KM12): > 76.4 µM (inactive) | GI50 (OVCAR-8): 71 µM (inactive) | GI50 (SW-620): 72.4 µM (inactive) | GI50 (SK-MEL-2): 45.4 µM (inactive) | GI50 (LOX IMVI): > 73.6 µM (inactive) | GI50 (MOLT-4): > 26.7 µM (inactive) | GI50 (U-251): 28.4 µM (inactive) | GI50 (NCI-H23): 38.6 µM (inactive) | GI50 (HL-60): > 35.6 µM (inactive)

O=C1C[C@H](Sc2ccccc2)C2(OCCO2)[C@@H](Sc2ccccc2)C1
GI50 (SF-268): 1.87 µM (inactive) | GI50 (HCC 2998): 2.58 µM (inactive) | GI50 (HOP-62): 3.27 µM (inactive) | GI50 (COLO 205): 4.28 µM (inactive) | GI50 (SK-OV-3): 11.5 µM (inactive) | GI50 (OVCAR-4): 5.07 µM (inactive) | GI50 (SF-539): 0.998 µM (active) | GI50 (HCT-15): 1.68 µM | GI50 (CCRF-CEM): 0.282 µM (active) | GI50 (HCT-116): 1.6 µM (inactive) | GI50 (K562): 0.351 µM (active) | GI50 (KM12): 1.79 µM (inactive) | GI50 (OVCAR-8): 1.73 µM (inactive) | GI50 (SW-620): 1.24 µM (inactive) | GI50 (SK-MEL-2): 10.2 µM (inactive) | GI50 (LOX IMVI): 0.7 µM (active) | GI50 (MOLT-4): 0.26 µM (active) | GI50 (U-251): 1.78 µM (inactive) | GI50 (NCI-H23): 2.09 µM (inactive) | GI50 (HL-60): 0.272 µM (active)

CC1CN=C(N(C(=O)Nc2ccccc2)C2CCCCC2)S1 (configuration not stated)
GI50 (SF-268): 17.6 µM (inactive) | GI50 (HCC 2998): 18.3 µM (inactive) | GI50 (HOP-62): 41.2 µM (inactive) | GI50 (COLO 205): 19 µM (inactive) | GI50 (SK-OV-3): 31.3 µM (inactive) | GI50 (OVCAR-4): 14.5 µM (inactive) | GI50 (SF-539): 22.4 µM (inactive) | GI50 (HCT-15): 14.4 µM | GI50 (CCRF-CEM): 20.7 µM (inactive) | GI50 (HCT-116): 16.7 µM (inactive) | GI50 (K562): 22.5 µM (inactive) | GI50 (KM12): 16.1 µM (inactive) | GI50 (OVCAR-8): 25.9 µM (inactive) | GI50 (SW-620): 14.1 µM (inactive) | GI50 (SK-MEL-2): 15.2 µM (inactive) | GI50 (LOX IMVI): 13.5 µM (inactive) | GI50 (MOLT-4): 16.7 µM (inactive) | GI50 (U-251): 16.9 µM (inactive) | GI50 (NCI-H23): 16.4 µM (inactive) | GI50 (HL-60): 14.8 µM (inactive)

CCOC(=O)NC(OCc1ccccc1)(C(=O)OC)C(F)(F)F (configuration not stated)
GI50 (SF-268): > 100 µM (inactive) | GI50 (HCC 2998): > 100 µM (inactive) | GI50 (COLO 205): > 100 µM (inactive) | GI50 (SK-OV-3): > 100 µM (inactive) | GI50 (OVCAR-4): > 100 µM (inactive) | GI50 (SF-539): > 100 µM (inactive) | GI50 (HCT-15): > 100 µM | GI50 (CCRF-CEM): > 100 µM (inactive) | GI50 (HCT-116): > 100 µM (inactive) | GI50 (K562): > 100 µM (inactive) | GI50 (KM12): > 100 µM (inactive) | GI50 (OVCAR-8): > 100 µM (inactive) | GI50 (SW-620): > 100 µM (inactive) | GI50 (SK-MEL-2): > 100 µM (inactive) | GI50 (LOX IMVI): > 100 µM (inactive) | GI50 (MOLT-4): > 100 µM (inactive) | GI50 (U-251): > 100 µM (inactive) | GI50 (NCI-H23): > 100 µM (inactive) | GI50 (HL-60): > 100 µM (inactive)

Cc1csc(/N=C(/NCCN2CCOCC2)Nc2nc(C)cs2)n1
GI50 (SF-268): > 100 µM (inactive) | GI50 (HCC 2998): > 100 µM (inactive) | GI50 (HOP-62): > 100 µM (inactive) | GI50 (COLO 205): > 100 µM (inactive) | GI50 (SK-OV-3): > 100 µM (inactive) | GI50 (OVCAR-4): > 100 µM (inactive) | GI50 (SF-539): > 100 µM (inactive) | GI50 (HCT-15): > 100 µM | GI50 (CCRF-CEM): > 100 µM (inactive) | GI50 (HCT-116): > 70.1 µM (inactive) | GI50 (K562): > 100 µM (inactive) | GI50 (KM12): > 100 µM (inactive) | GI50 (OVCAR-8): > 100 µM (inactive) | GI50 (SW-620): > 100 µM (inactive) | GI50 (SK-MEL-2): > 100 µM (inactive) | GI50 (LOX IMVI): > 100 µM (inactive) | GI50 (MOLT-4): > 100 µM (inactive) | GI50 (U-251): > 100 µM (inactive) | GI50 (NCI-H23): > 100 µM (inactive) | GI50 (HL-60): 60.7 µM (inactive)

O=C(N/N=C/c1ccccc1)c1c(F)c(F)c(F)c(F)c1F
GI50 (SF-268): > 100 µM (inactive) | GI50 (HCC 2998): > 100 µM (inactive) | GI50 (HOP-62): > 100 µM (inactive) | GI50 (COLO 205): > 100 µM (inactive) | GI50 (SK-OV-3): > 100 µM (inactive) | GI50 (OVCAR-4): > 100 µM (inactive) | GI50 (SF-539): 67 µM (inactive) | GI50 (HCT-15): 50.1 µM | GI50 (CCRF-CEM): > 100 µM (inactive) | GI50 (HCT-116): 56 µM (inactive) | GI50 (K562): > 100 µM (inactive) | GI50 (KM12): 86.1 µM (inactive) | GI50 (OVCAR-8): > 100 µM (inactive) | GI50 (SW-620): 96.8 µM (inactive) | GI50 (SK-MEL-2): > 100 µM (inactive) | GI50 (LOX IMVI): > 100 µM (inactive) | GI50 (MOLT-4): > 100 µM (inactive) | GI50 (U-251): > 100 µM (inactive) | GI50 (NCI-H23): > 100 µM (inactive) | GI50 (HL-60): > 100 µM (inactive)
